These results are taken from article PMC6266305 (Nutrients, 2018).

Several values for one entry are separate records, joined by “and”; a condition that tells them apart may be missing. Equal values may be shown once. Entries after “also recorded” stand apart in the source; their conditions may differ.

On the set-up of data set [1]: method as in PMID 21494673. The conditions noted are these: cited from earlier work.
In a further data set the test system is Caco-2 TC7 cells. Put plainly: Uptake and apical-to-basolateral transport by Caco-2 TC7 cell monolayers of diluted aqueous fractions from in vitro digestions. The format is in vitro ADME, human. The conditions noted are these: for Recovery in the cytosolic compartment of the cells or in the basolateral media (crossing of Caco-2 monolayers, native form): 6-h incubation; for Decrease of amount in the apical media: 6-h incubation on cell monolayers; for FA at the basolateral side as percentage (CA equivalent) of the initial CA amount in the apical side: 6 h, FA is the CA metabolite. The procedure: Caco-2 TC7 cells were grown in DMEM supplemented with 16% (v/v) fetal bovine serum, 1% (v/v) non-essential amino-acids, and 1% (v/v) antibiotics (complete medium), as previously described. Cells were then seeded at a density of 15 000 cells/well, grown on transwell membrane (six-well plate, […] polycarbonate membrane; Becton Dickinson) and incubated in humidified atmosphere of 5% CO2 and 95% air at 37 °C during 21 days to obtain confluent and differentiated cell monolayers.
The cytotoxicity on Caco-2 cells of the aqueous fractions from in vitro digestions was first assessed to determine the suitable dilution required before adding the aqueous fractions to the apical side of cell monolayers. […] To avoid any interference with DMEM or serum components, the aqueous fractions were diluted in HBSS. Caco-2 cells also received HBSS in both chambers 12 h before the experiments. At the beginning of each experiment, cells were rinsed twice with 1 mL of PBS. Then, 1 mL of diluted aqueous fraction was added to the apical side and 2 mL of HBSS were added at the basolateral side. After an incubation period (2, 4, or 6 h) at 37 °C, both apical and basolateral media were harvested. Cells were then rinsed twice with 1mL of PBS and scrapped in 0.5 mL of iced-cold PBS. All analyses were run in quadruplicate and samples were stored at −80 °C until further analysis.
Gallic acid was chosen as internal standard as it was not present in the extract. Phenolic compounds were extracted from salivary, gastric and duodenal samples as follows: 0.3 mL of ethanol and 0.2 mL of n-hexane were added to 0.2 mL of sample and the mixture was stirred for 10 min using a vortex blender at maximal speed. After centrifugation (3560 g for 10 min at 4 °C), the lower phase was collected. The solid bottom was re-extracted with 0.3 mL of ethanol and vortexed for 10 min. The second ethanol phase recovered was pooled to the previously collected phase, and then dried using a Speed-Vac®. The dried extracts were dissolved in 200 µL of water. Apical media were directly injected. To concentrate them, basolateral media (1900 µL) were dried using a Speed-Vac®, and the dried residues were dissolved into 80 µL of water. All samples were stored at −80 °C before analysis.
Following the procedure by Gallardo et al. (2016), 50 µL of internal standard were added to harvested cells (in 500 µL PBS). Samples were then sonicated for 10 min at room temperature and centrifuged (10,000 g for 10 min at 4 °C). Supernatants were collected and evaporated to dryness. The dried residues were dissolved in 50 µL of water and stored at −80 °C before analysis.
All samples were analyzed by UHPLC-DAD-MS using an Acquity UPLC® system that was linked to both a diode-array detector and a Bruker Daltonics HCT Ultra Ion Traps mass spectrometer equipped with an Electron Spray Ionization (ESI) source operating in negative ion mode. The separation was performed on an Acquity C18 BEH column (50 × 2.1 mm i.d., 1.7 µm) kept at 35 °C. The solvents were (A) water/formic acid (99.5/0.5) and (B) acetonitrile. The proportions of solvent B used were: 0–10 min: 1–20%, 10–12 min: 20–30%, 12–14 min: 30–100%. Along the three steps of the gradient, the flow rate was 0.30, 0.35, and 0.40 mL/min. The injection volume was 1 μL for digestion and apical medium samples, and 10 µL for cells and basolateral samples. Chromatograms were acquired at 280 nm. The spectroscopic detection was performed in the range 200–800 nm with a resolution of 1.2 nm. The concentrations of phenolic compounds Tyr, CA, and p-Cm were estimated from calibration curves (peak area vs. concentration) with R² values greater than 0.99 [26].
Results were expressed as means ± standard deviations. Differences between means were assessed using ANOVA followed by the post-hoc Tukey test for parametric data. P values under 0.05 were considered to be significant. […]
(In general: Caco-2 monolayers are a common model of the intestinal barrier.)

Data set [2] in a line: In vitro digestion model: bioaccessibility of alperujo phenolic compounds added to a test meal (percentage found in the aqueous phase of the digesta). It counts as in vitro ADME. Particulars: average of alperujo and alperujo-CD, mean ± SD. The procedure:
The in vitro digestion was carried out as previously described. […] The mixture was dispersed with Ultra-Turrax® (Ika) and artificial saliva (2.5 mL, pH 7) was added to the mixture. The sample was incubated for 10 min at 37 °C in a shaking incubator. The pH of the gastric medium was adjusted to 4.00 ± 0.02 with 1 M HCl. Then, porcine pepsin (2 mL, 40 mg/mL in 0.1 M HCl) was added and the homogenate was incubated at 37 °C in a shaking incubator for 30 min simulating the gastric step. The pH of the mixture was raised to 6.00 ± 0.02 with 0.9 M NaHCO3 and 13 mL of a mixture of porcine bile extract (39.08 mg/mL) and pancreatin (2.08 mg/mL) in 0.1 M trisodium citrate (pH 6) were added. Samples were incubated in a shaking incubator at 37 °C for 30 min to complete the digestion process. The final mixture representing the digesta was centrifuged (2500 g for 1 h at 10 °C) to separate the aqueous fraction. […] All analyses were run in quadruplicate. Aliquots from salivary, gastric, and duodenal steps were frozen at −80 °C until use. […] After centrifugation (3560 g for 10 min at 4 °C), the lower phase was collected. The solid bottom was re-extracted with 0.3 mL of ethanol and vortexed for 10 min. The second ethanol phase recovered was pooled to the previously collected phase, and then dried using a Speed-Vac®. The dried extracts were dissolved in 200 µL of water. Apical media were directly injected. […] All samples were stored at −80 °C before analysis. All samples were analyzed by UHPLC-DAD-MS using an Acquity UPLC® system that was linked to both a diode-array detector and a Bruker Daltonics HCT Ultra Ion Traps mass spectrometer equipped with an Electron Spray Ionization (ESI) source operating in negative ion mode. The separation was performed on an Acquity C18 BEH column (50 × 2.1 mm i.d., 1.7 µm) kept at 35 °C. The solvents were (A) water/formic acid (99.5/0.5) and (B) acetonitrile. […] Along the three steps of the gradient, the flow rate was 0.30, 0.35, and 0.40 mL/min. […] Chromatograms were acquired at 280 nm. The spectroscopic detection was performed in the range 200–800 nm with a resolution of 1.2 nm.

A further data set concerns Caco-2 cells. In words: Overall in vitro bioavailability: basolateral amount in Caco-2 cells relative to the initial amount in the test meal before in vitro digestion. The format is in vitro ADME, human. The conditions noted are these: mean ± SD (n = 4). The method, then: The in vitro digestion was carried out as previously described. […] The mixture was dispersed with Ultra-Turrax® (Ika) and artificial saliva (2.5 mL, pH 7) was added to the mixture. The sample was incubated for 10 min at 37 °C in a shaking incubator. […] Then, porcine pepsin (2 mL, 40 mg/mL in 0.1 M HCl) was added and the homogenate was incubated at 37 °C in a shaking incubator for 30 min simulating the gastric step. […] Samples were incubated in a shaking incubator at 37 °C for 30 min to complete the digestion process. The final mixture representing the digesta was centrifuged (2500 g for 1 h at 10 °C) to separate the aqueous fraction. […] The cytotoxicity on Caco-2 cells of the aqueous fractions from in vitro digestions was first assessed to determine the suitable dilution required before adding the aqueous fractions to the apical side of cell monolayers. […] To avoid any interference with DMEM or serum components, the aqueous fractions were diluted in HBSS. Caco-2 cells also received HBSS in both chambers 12 h before the experiments. At the beginning of each experiment, cells were rinsed twice with 1 mL of PBS. […] Cells were then rinsed twice with 1mL of PBS and scrapped in 0.5 mL of iced-cold PBS. All analyses were run in quadruplicate and samples were stored at −80 °C until further analysis. Results were expressed as means ± standard deviations. Differences between means were assessed using ANOVA followed by the post-hoc Tukey test for parametric data. […] Two parameters were assessed to express the bioavailability: a) the ratio between the mass of phenolic compounds recovered at the basolateral side and the initial mass added to the apical side, b) the ratio between the mass of phenolic compounds recovered at the basolateral side and the initial mass added to the meal.

Regarding `O=C1C[C@@H](c2ccc(O)cc2)Oc2cc(O)cc(O)c21` [naringenin], the “Improvement of absorption through the gut epithelium by hydroxypropyl-β-CD” value in data set [1] was 11 fold.
On to hydroxytyrosol-O-glucoside [HT-Glc], for which the “Recovery in the cytosolic compartment of the cells or in the basolateral media (crossing of Caco-2 monolayers, native form)” value is on record as “neither HT-Glc nor CA was recovered; also recorded: no HT-Glc was recovered” in the data set with Caco-2 TC7 cells and “did not cross Caco-2 cell monolayers” with Caco-2 TC7 cells (listed as Hydroxytyrosol-O-glucoside). For the same molecule, the “Decrease of amount in the apical media” value in the data set with Caco-2 TC7 cells (from alperujo) was “about 10%”. Moreover, the “Bioaccessibility (recovery in the final aqueous phase at the duodenal step)” value in data set [2] (in vitro digestion with test meal) stood at 73.2 ± 4.5%.
As to `O=C(O)/C=C/c1ccc(O)c(O)c1` [CA, caffeic acid], the entries for the “Recovery in the cytosolic compartment of the cells or in the basolateral media (crossing of Caco-2 monolayers, native form)” value in the data set on Caco-2 TC7 cells and with Caco-2 TC7 cells (listed as caffeic) were “neither HT-Glc nor CA was recovered; also recorded: not recovered; also recorded: not found bioavailable in its native form” and “did not cross Caco-2 cell monolayers”, respectively. Also, in the data set with Caco-2 TC7 cells (from alperujo), the “Decrease of amount in the apical media” value is about 18%. Besides, the recovery in data set [2] (pig, pH 6, in vitro digestion with test meal, read-out: Bioaccessibility (recovery in the final aqueous phase at the duodenal step)) was about 64.9%.
Regarding `COc1cc(/C=C/C(=O)O)ccc1O` [FA, Ferulic acid], the “FA at the basolateral side as percentage (CA equivalent) of the initial CA amount in the apical side” value in the data set with Caco-2 TC7 cells (from alperujo-CD) is 23.4 ± 2.2% and 23.4 ± 2.2 ^b %; in the data set with Caco-2 TC7 cells (from alperujo), 18.8 ± 1.0% and 18.8 ± 1.0 ^a %. In addition, in the data set with Caco-2 TC7 cells (alperujo and alperujo-CD), the “Absorption efficiency of FA through cell monolayers, percentage of the initial CA amount” value is ~ 20%. In addition, the “Bioavailability of FA (CA metabolite) in Caco-2 cells as percentage of initial amount in the test meal before in vitro digestion” value in the data set on Caco-2 cells (from alperujo-CD) is recorded as 10.0 ± 1.0 ^a %; in the data set with Caco-2 cells (from alperujo) it was 8.9 ± 0.5 ^a %.
